Assays:
Type in all cases: in vivo, human
VEGF-A = VEGF-A angiogenic immunohistochemical marker in scar biopsies
Procedure: A double-blind randomized placebo-controlled trial was conducted using a temporal punch-biopsy model. The punch biopsy and topical application methodology used in the study is illustrated in FIG. 1, namely showing pre-injury pre-emptive priming (7-days), pre-injury pre-emptive priming (3-days), day of injury (immediate application on day 0), post-injury (delayed 2 weeks post injury) including biopsy time points and time of topical applications. Each group applied both placebo and topical formulations twice daily for the duration of the study until week 8, with only the starting time point differing between groups Participants were split into 4 groups (n=10 in each group) in order to compare different modes (timings) of commencement of the topical application: • Group-1: Pre-emptive Priming (7-days): pre-injury • Group-2: Pre-emptive Priming (3-days): pre-injury • Group-3: Immediate (0-day): day-of-injury • Group-4: Delayed (14-days): post-injury Clinical quantitative devices were used to objectively monitor cutaneous healing at weekly intervals and punch biopsies were performed on day 0 (uninjured skin) and at weeks 4 and 8 for protein and gene expression analyses. In the trial, topical EGCG and a placebo topical were applied twice daily for the duration of the trial until week 8 with only the starting time points differing between groups. Clinical and experimental analysis involved use of non-invasive devices as well as protein and gene studies. Excisional skin biopsies in upper arms were evaluated weekly with multiple quantitative devices over an 8-week period. […] In order to further support these findings and the clinical findings, two well-known and established angiogenic immunohistochemical markers; CD31 and VEGF-A were used.

Fc epsilon RI (FcεRI) = experiment: Fc epsilon RI immunohistochemical marker in scar biopsies; conditions: week 4, all groups, p<0.01
Procedure: A double-blind randomized placebo-controlled trial was conducted using a temporal punch-biopsy model. The punch biopsy and topical application methodology used in the study is illustrated in FIG. 1, namely showing pre-injury pre-emptive priming (7-days), pre-injury pre-emptive priming (3-days), day of injury (immediate application on day 0), post-injury (delayed 2 weeks post injury) including biopsy time points and time of topical applications. Each group applied both placebo and topical formulations twice daily for the duration of the study until week 8, with only the starting time point differing between groups Participants were split into 4 groups (n=10 in each group) in order to compare different modes (timings) of commencement of the topical application: • Group-1: Pre-emptive Priming (7-days): pre-injury • Group-2: Pre-emptive Priming (3-days): pre-injury • Group-3: Immediate (0-day): day-of-injury • Group-4: Delayed (14-days): post-injury Clinical quantitative devices were used to objectively monitor cutaneous healing at weekly intervals and punch biopsies were performed on day 0 (uninjured skin) and at weeks 4 and 8 for protein and gene expression analyses. […] Excisional skin biopsies in upper arms were evaluated weekly with multiple quantitative devices over an 8-week period. […]

MCT and MCC = experiment: QRT-PCR of MCT and MCC in scar biopsies; conditions: week 4, all groups, p<0.05
Procedure: A double-blind randomized placebo-controlled trial was conducted using a temporal punch-biopsy model. The punch biopsy and topical application methodology used in the study is illustrated in FIG. 1, namely showing pre-injury pre-emptive priming (7-days), pre-injury pre-emptive priming (3-days), day of injury (immediate application on day 0), post-injury (delayed 2 weeks post injury) including biopsy time points and time of topical applications. Each group applied both placebo and topical formulations twice daily for the duration of the study until week 8, with only the starting time point differing between groups Participants were split into 4 groups (n=10 in each group) in order to compare different modes (timings) of commencement of the topical application: • Group-1: Pre-emptive Priming (7-days): pre-injury • Group-2: Pre-emptive Priming (3-days): pre-injury • Group-3: Immediate (0-day): day-of-injury • Group-4: Delayed (14-days): post-injury Clinical quantitative devices were used to objectively monitor cutaneous healing at weekly intervals and punch biopsies were performed on day 0 (uninjured skin) and at weeks 4 and 8 for protein and gene expression analyses. […] Excisional skin biopsies in upper arms were evaluated weekly with multiple quantitative devices over an 8-week period. […] MCT, MCC and CKit quantitative measurements are expressed in mm^2.

O=C(OC1Cc2c(O)cc(O)cc2OC1c1cc(O)c(O)c(O)c1)c1cc(O)c(O)c(O)c1 (single isomer, unassigned; (-)) [EGCG, (-)-epigallocatechin-3-gallate]
VEGF-A in EGCG-treated samples compared to placebo (VEGF-A; week 4, all groups, p<0.01): significantly down-regulated | VEGF-A: greater reduction in group-2 compared to group-4 (VEGF-A; week 4, 3-day priming vs delayed, p=0.01): 56% | VEGF-A: greater reduction in group-1 compared to group-4 (VEGF-A; week 4, 7-day priming vs delayed, p=0.005): 51% | VEGF-A in EGCG-treated samples (VEGF-A; week 8, groups 1-3, p<0.01): significant reduction | FcεRI in EGCG-treated samples compared to placebo (Fc epsilon RI (FcεRI)): significant reduction | QRT-PCR MCC expression, EGCG-treated samples (MCT and MCC): down-regulation | QRT-PCR MCT expression, EGCG-treated samples (MCT and MCC): down-regulation
